pIC50: −log10 of the molar value.
Tested on: pERK in NCI-H358 cells
Assay: Cell-based pERK HTRF assay (pERK inhibition in H358 cells)
Conditions: Homo sapiens, NCI-H358, 0.5 h, pERK inhibition IC50, NCI-H358 cells, 30 min incubation; read-out: PERK in H358 cell

SMILES	pIC50
C=CC(=O)N1CC[C@@H](N(C)c2nc(OC[C@@H]3C[C@@H](F)CN3C)nc3c(F)c(-c4ccc(F)c5sc(N)nc45)c(C(F)(F)F)cc23)C1 (atropisomer, axis not shown) [Compound 231]	6.00 to 7.00
C=CC(=O)N1CC[C@@H]2[C@H]1CN2c1nc(OCC23CCCN2CCC3)nc2c(F)c(-c3ccc(F)c4sc(N)nc34)c(C(F)(F)F)cc12 [Compound 166]	6.00 to 7.00
C=C(F)C(=O)N1CCN(c2nc(OC[C@]34CCCN3C[C@H](F)C4)nc3c(F)c(-c4ccc(F)c5sc(N)nc45)c(C(F)(F)F)cc23)[C@H](C)C1 [Compound 199]	6.00 to 7.00
C=CC(=O)N1CCC(N(C)c2nc(OC[C@@H]3CCCN3C)nc3cc(-c4ccc(F)c5sc(N)c(C#N)c45)c(C#N)cc23)[C@H]1COC (stereo partly shown) [Compound 455]	6.00 to 7.00
C=CC(=O)N1C[C@@H](F)[C@@H](N(C)c2nc(OC[C@@]34CCCN3C[C@H](F)C4)nc3c(F)c(-c4ccc(F)c5sc(N)nc45)c(C#N)cc23)C1 [Compound 360]	6.00 to 7.00
C=CC(=O)N1CC(Nc2nc(OC[C@@H]3CCCN3C)nc3c(F)c(-c4ccc(F)c5sc(N)nc45)c(-c4ccoc4)cc23)C1 [Compound 93]	< 6.00
CN1CCC[C@H]1COc1nc(NC2CCN(C#N)C2)c2cc(Cl)c(-c3ccc(F)c4sc(N)nc34)c(F)c2n1 (stereo partly shown) [Compound 51]	6.00 to 7.00
C=CC(=O)N1C[C@H](C)N(c2nc(OC[C@@]34CCCN3C[C@H](F)C4)nc3c(F)c(-c4ccc(F)c5sc(NC(C)=O)c(C#N)c45)c(C(F)(F)F)cc23)C[C@H]1C [Compound 378]	6.00 to 7.00
C=CC(=O)N1CCC(N(C)c2nc(OC[C@@H]3C[C@@H](F)CN3C)nc3c(F)c(-c4ccc(F)c5sc(N)c(C#N)c45)c(Cl)cc23)[C@H]1C (stereo partly shown) [Compound 449]	6.00 to 7.00
CC#CC(=O)N1CC[C@@H]2[C@H]1CN2c1nc(OCC23CCCN2CCC3)nc2c(F)c(-c3ccc(F)c4sc(N)nc34)c(Cl)cc12 [Compound 118]	< 6.00
C=CC(=O)N1C[C@H](C)N(c2nc(OC[C@@]34CCCN3C[C@H](OC)C4)nc3c(F)c(-c4ccc(F)c5sc(N)c(C#N)c45)c(Cl)cc23)C[C@H]1C [Compound 367]	> 7.00
C=CC(=O)N1C[C@@H](F)[C@@H](N(CC)c2nc(OC[C@@]34CCCN3C[C@H](F)C4)nc3cc(-c4ccc(F)c5sc(N)c(C#N)c45)ccc23)C1 [Compound 377]	> 7.00
C=CC(=O)N1CCN(c2nc(OC[C@]34CCCN3C[C@H](F)C4)nc3c(F)c(-c4ccc(F)c5sc(N)nc45)c(C(F)(F)F)cc23)[C@H](C)C1 [Compound 196]	> 7.00
C=CC(=O)N1CCN(c2nc(OCC34CCCN3CCC4)nc3c(F)c(-c4ccc(F)c5sc(N)nc45)c(OC(F)F)cc23)CC1 [Compound 254]	6.00 to 7.00
C=CC(=O)N1C[C@H](C)N(c2nc(OC[C@@]34CCCN3C[C@H](F)C4)nc3c(F)c(-c4ccc(F)c5sc(N)c(C#N)c45)c(C(F)(F)F)cc23)C[C@@H]1C [Compound 349]	> 7.00
C=CC(=O)N1CC[C@@H](N(CC)c2nc(OC[C@@]34CCCN3C[C@H](F)C4)nc3c(F)c(-c4ccc(F)c5sc(N)c(C#N)c45)c(Cl)cc23)[C@H]1C [Compound 418]	6.00 to 7.00
CC#CC(=O)N1CCN(c2nc(OC[C@@H]3CC(F)(F)CN3C)nc3c(F)c(-c4ccc(F)c5sc(N)nc45)c(C(F)(F)F)cc23)CC1 [Compound 132]	< 6.00
C=CC(=O)N1C[C@H](C)N(c2ncnc3c(F)c(-c4ccc(F)c5sc(N)c(C#N)c45)c(C(F)(F)F)cc23)C[C@H]1C [Compound 382]	> 7.00
C=CC(=O)N1C[C@H](C)N(c2nc(OC[C@@]34CCCN3C[C@H](F)C4)nc3c(F)c(-c4ccc(F)c5sc(N)nc45)c(C#N)cc23)C[C@H]1C [Compound 326]	> 7.00
C=CC(=O)N1C[C@H](C)N(c2nc(OC[C@@H]3CCCN3C)nc3c(F)c(-c4ccc(F)c5sc(N)c(C#N)c45)c(C(F)(F)F)cc23)C[C@H]1C (single isomer, unassigned) [Compound 458]	> 7.00
C=CC(=O)N1C[C@H](C)N(c2nc(OC[C@@]34CCCN3C[C@H](F)C4)nc3cc(-c4c(F)cc(F)c5sc(N)nc45)c(C(F)(F)F)cc23)C[C@H]1C [Compound 298, 1-((2R,5S)-4-(7-(2-amino-5,7-difluorobenzo[d]thiazol-4-yl)-2-(((2R,7aS)-2-fluorotetrahydro-1H-pyrrolizin-7a(5H)-yl)methoxy)-6-(trifluoromethyl)quinazolin-4-yl)-2,5-dimethylpiperazin-1-yl)prop-2-en-1-one]	> 7.00
C=CC(=O)N1C[C@H](N(C)c2ncnc3c(F)c(-c4ccc(F)c5sc(N)nc45)c(C(F)(F)F)cc23)C2(CC2)C1 (atropisomer, axis not shown) [Compound 263]	< 6.00
C=CC(=O)N1C[C@H](C)N(c2nc(OC[C@@]34CCCN3C[C@H](F)C4)nc3c(F)c(-c4ccc(F)c5sc(N)nc45)c(OC(F)(F)F)cc23)C[C@H]1C [Compound 235, 1-((2R,5S)-4-(7-(2-amino-7-fluorobenzo[d]thiazol-4-yl)-8-fluoro-2-(((2R,7aS)-2-fluorotetrahydro-1H-pyrrolizin-7a(5H)-yl)methoxy)-6-(trifluoromethoxy)quinazolin-4-yl)-2,5-dimethylpiperazin-1-yl)prop-2-en-1-one]	> 7.00
C=CC(=O)N1CCN(c2nc(OCC34CCCN3CC(F)(F)C4)nc3c(F)c(-c4ccc(F)c5sc(N)nc45)c(C(F)(F)F)cc23)CC1 (stereo not shown) [Compound 192]	> 7.00

Results, then the compound that gave them:

pIC50	SMILES
> 7.00	C=CC(=O)N1CCC(N(C)c2nc(OC[C@@H]3CCCN3C)nc3c(F)c(-c4ccc(F)c5sc(N)c(C#N)c45)c(Cl)cc23)[C@H]1COC (stereo partly shown) [Compound 416]
> 7.00	C=CC(=O)N1CCC(N(CC)c2nc(OC[C@@H]3CCCN3C)nc3c(F)c(-c4ccc(F)c5sc(N)c(C#N)c45)c(C(F)(F)F)cc23)[C@H]1C (stereo partly shown) [Compound 396]
> 7.00	C=CC(=O)N1CC[C@@H](N(C)c2nc(OC[C@@]34CCCN3C[C@H](OC)C4)nc3c(F)c(-c4ccc(F)c5sc(N)nc45)c(C(F)(F)F)cc23)C1 [Compound 290]
> 7.00	C=CC(=O)N1CCC(N(CC)c2nc(OC[C@@H]3C[C@@H](F)CN3C)nc3c(F)c(-c4ccc(F)c5sc(N)c(C#N)c45)c(C(F)(F)F)cc23)[C@H]1COC (stereo partly shown) [Compound 453]
> 7.00	C=CC(=O)N1C[C@@H](F)[C@@H](N(C)c2nc(OC[C@@]34CCCN3C[C@H](F)C4)nc3c(F)c(-c4ccc(F)c5sc(N)c(C#N)c45)c(Cl)cc23)C1 [Compound 365]
> 7.00	C=CC(=O)N1C[C@H](C)N(c2nc(OC[C@@]34CCCN3C[C@@H](F)C4)nc3c(F)c(-c4ccc(F)c5sc(N)nc45)c(C(F)(F)F)cc23)C[C@H]1C [Compound 219]
> 7.00	C=CC(=O)N1CCN(c2nc(OC[C@@H]3CC(F)(F)CN3C)nc3c(F)c(-c4ccc(F)c5sc(N)nc45)c(C(F)(F)F)cc23)CC1 [Compound 131]
> 7.00	C=CC(=O)N1CCC[C@@H](N(C)c2nc(OC[C@@]34CCCN3C[C@H](F)C4)nc3c(F)c(-c4ccc(F)c5sc(N)nc45)c(Cl)cc23)C1 (atropisomer, axis not shown) [Compound 241]
> 7.00	C=CC(=O)N1C[C@H](C)N(c2nc(OCC34CCCN3CCC4)nc3c(F)c(-c4ccc(F)c5sc(N)c(C#N)c45)c(C(F)(F)F)cc23)C[C@H]1C [Compound 346]
> 7.00	C=CC(=O)N1C[C@H](C)N(c2nc(OCC34CCCN3CCC4)nc3c(F)c(-c4ccc(F)c5sc(N)c(C#N)c45)c(Cl)cc23)C[C@H]1C [Compound 366]
> 7.00	C=CC(=O)N1CC[C@@H]2[C@H]1CN2c1nc(OC[C@@]23CCCN2C[C@H](F)C3)nc2c(F)c(-c3ccc(F)c4sc(N)c(C#N)c34)c(C(F)(F)F)cc12 [Compound 339]
> 7.00	C=CC(=O)N1CCN(c2nc(OC[C@@H]3CCCN3CCF)nc3c(F)c(-c4ccc(F)c5sc(N)nc45)c(C(F)(F)F)cc23)CC1 [Compound 153]
> 7.00	C=CC(=O)N1C[C@@H](F)[C@@H](N(CC)c2nc(OC[C@@]34CCCN3C[C@H](F)C4)nc3cc(-c4ccc(F)c5sc(N)c(C#N)c45)c(C#N)cc23)C1 [Compound 386]
> 7.00	C=CC(=O)N1C[C@H](C)N(c2nc(OC[C@@]34CCCN3C[C@H](F)C4)nc3c(F)c(-c4ccc(F)c5sc(N)c(C#N)c45)ccc23)C[C@H]1C [Compound 312]
> 7.00	C=CC(=O)N1C[C@H](C)N(c2nc(OC[C@@]34CCCN3C[C@H](F)C4)nc3c(F)c(-c4ccc(F)c5sc(N)c(C#N)c45)c(C(F)(F)F)cc23)C[C@H]1C (single isomer, unassigned) [Compound 313]
> 7.00	C=CC(=O)N1C[C@H](N(C)c2nc(OC[C@@]34CCCN3C[C@H](F)C4)nc3c(F)c(-c4ccc(F)c5sc(N)nc45)c(C(F)(F)F)cc23)C2(CC2)C1 [Compound 294]

Same assay, conditions: pERK inhibition IC50, NCI-H358 cells, 30 min incubation; read-out: PERK in H358 cell

pIC50	SMILES
< 6.00	C=CC(=O)N1C[C@H](N(C)c2ncnc3c(F)c(-c4ccc(F)c5sc(N)nc45)c(C(F)(F)F)cc23)C[C@H]1C (atropisomer, axis not shown) [Compound 251]
> 7.00	C=CC(=O)N1C[C@H](C)N(c2nc(OC[C@@]34CCCN3C[C@H](F)C4)nc3c(F)c(-c4ccc(F)c5sc(N)nc45)c(C(F)(F)F)cc23)C[C@H]1C (atropisomer, axis not shown) [Compound 267]
6.00 to 7.00	C=CC(=O)N1CC[C@@H](N(C)c2nc(OCC34CCCN3CCC4)nc3c(F)c(-c4ccc(F)c5sc(N)nc45)c(C(F)(F)F)cc23)C1 (atropisomer, axis not shown) [Compound 222]
6.00 to 7.00	C=CC(=O)N1CC[C@@H](N(C)c2nc(OC[C@@]34CCCN3C[C@H](F)C4)nc3c(Cl)c(-c4ccc(F)c5sc(N)nc45)c(C(F)(F)F)cc23)C1 (single isomer, unassigned) [Compound 303]
6.00 to 7.00	C=CC(=O)N1CC[C@@H](N(C)c2nc(OC[C@@]34CCCN3C[C@H](F)C4)nc3c(F)c(-c4ccc(F)c5sc(N)nc45)c(C(F)(F)F)cc23)C1 (single isomer, unassigned) [Compound 240]
< 6.00	C=CC(=O)N1C[C@H](N(C)c2ncnc3c(F)c(-c4ccc(F)c5sc(N)nc45)c(C(F)(F)F)cc23)C2(CC2)C1 (atropisomer, axis not shown) [Compound 264]

Reference: patent publication US12528818B2, “Compositions and methods for inhibition of RAS” (Leidos Biomedical Research, Inc., priority 2021, dated 2026)
